# Source: US9040458B2, “Safening composition of 6-(trisubstituded phenyl)-4-amino-2-pyridinecarboxylate herbicides and cloquintocet-mexyl for cereal crops” (Dow AgroSciences LLC, priority 2008, dated 2015)
# Counter-ions that a name gives are not always drawn.
# Assays:
# [1] = tested on: HORVS = Hordeum vulgare (spring barley); assay: Postemergence herbicidal safening, greenhouse, visual injury; assay type: in vivo; conditions: 20-22 d
# Procedure: (§1) Seeds of the desired test plant species were planted in Sun Gro MetroMix® 306 planting mixture, which typically has a pH of 6.0 to 6.8 and an organic matter content of about 30 percent, in plastic pots with a surface area of 103.2 square centimeters (cm^2). When required to ensure good germination and healthy plants, a fungicide treatment and/or other chemical or physical treatment was applied. The plants were grown for 7-36 days (d) in a greenhouse with an approximate […] photoperiod which was maintained at about 18° C. during the day and 17° C. during the night. Nutrients and water were added on a regular basis and supplemental lighting was provided with overhead metal halide 1000-Watt lamps as necessary. The plants were employed for testing when they reached the second or third true leaf stage.
# (§2) Weighed amounts of esters (methyl) or salts (TEA [triethylammonium], potassium [K]) of 4-amino-3-chloro-6-(4-chloro-2-fluoro-3-methoxyphenyl)pyridine-2-carboxylic acid (Compound 1) were dissolved in a volume of 97:3 volume/volume (v/v) acetone/dimethylsulfoxide (DMSO) to obtain stock solutions. […] The concentrated stock solutions were diluted with an aqueous mixture of 1.5% v/v of Agri-dex crop oil concentrate to provide the appropriate application rates. Compound requirements are based upon a 12 mL application volume at a rate of 187 liters per hectare (L/ha). Stocks solutions of the safeners were prepared following the same procedure. Spray solutions of the safeners and experimental compound mixtures were prepared by adding the appropriate volume of both stock solutions to the appropriate amount of dilution solution to form a 12 mL spray solution with active ingredients in two-way combinations. Formulated compounds were applied to the plant material with an overhead Mandel track sprayer equipped with 8002E nozzles calibrated to deliver 187 L/ha over an application area of 0.503 square meters (m^2) at a spray height of 18 inches (43 centimeters (cm)) above average plant canopy. Control plants were sprayed in the same manner with the solvent blank.
# (§3) The treated plants and control plants were placed in a greenhouse as described above and watered by sub-irrigation to prevent wash-off of the test compounds. After 20-22 d, the condition of the test plants as compared with that of the control plants was determined visually and scored on a scale of 0 to 100 percent where 0 corresponds to no injury and 100 corresponds to complete kill.
# (§4) Colby's equation was used to determine the herbicidal effects expected from the mixtures (Colby, S. R., Calculation of the synergistic and antagonistic response of herbicide combinations. Weeds 1967, 15, 20-22.).
# (§5) The following equation was used to calculate the expected activity of mixtures containing two active ingredients, A and B: Expected=A+B−(A×B/100)
# (§6) A=observed efficacy of active ingredient A at the same concentration as used in the mixture.
# (§7) B=observed efficacy of active ingredient B at the same concentration as used in the mixture.
# [2] = tested on: TRZAS = Triticum aestivum (spring wheat); assay: as above; assay type: in vivo; conditions: 20-22 d
# Procedure: as §1, §2, §3, §4, §5, §6, §7
# [3] = tested on: TRZAW = Triticum aestivum (winter wheat); assay: as above; assay type: in vivo; conditions: applied alone at 140 g/ha, 20-22 d
# Procedure: as §1, §2, §3, §4, §5, §6, §7
# [4] = tested on: VERPE = Veronica persica (bird's-eye speedwell); assay: Postemergence herbicidal activity, greenhouse, visual injury; assay type: in vivo; conditions: applied alone at 140 g/ha, 20-22 d
# Procedure: as §1, §2, §3, §4, §5, §6, §7
# [5] = tested on: GALAP = Galium aparine (cleavers); assay: as above; assay type: in vivo; conditions: applied alone at 140 g/ha; 20-22 d
# Procedure: as §1, §2, §3, §4, §5, §6, §7
# [6] = tested on: KCHSC = Kochia scoparia (kochia); assay: as above; assay type: in vivo; conditions: applied alone at 140 g/ha, 20-22 d
# Procedure: as §1, §2, §3, §4, §5, §6, §7
# [7] = tested on: SASKR = Salsola iberica (Russian thistle); assay: as above; assay type: in vivo; conditions: applied alone at 140 g/ha, 20-22 d
# Procedure: as §1, §2, §3, §4, §5, §6, §7
# [8] = tested on: VIOTR = Viola tricolor (wild pansy); assay: as above; assay type: in vivo; conditions: applied alone at 140 g/ha, 20-22 d
# Procedure: as §1, §2, §3, §4, §5, §6, §7
# [9] = tested on: MATCH = Matricaria chamomila (scented mayweed); assay: as above; assay type: in vivo; conditions: applied alone at 140 g/ha, 20-22 d
# Procedure: as §1, §2, §3, §4, §5, §6, §7
# [10] = tested on: LAMPU (purple deadnettle); assay: as above; assay type: in vivo, Lamium purpureum; conditions: 20-22 d
# Procedure: as §1, §2, §3, §4, §5, §6, §7
# [11] = tested on: PAPRH (corn poppy); assay: as above; assay type: in vivo, Papaver rhoeas; conditions: 20-22 d
# Procedure: as §1, §2, §3, §4, §5, §6, §7
# [12] = tested on: HORVW (winter barley); assay: Postemergence herbicidal safening, greenhouse, visual injury; assay type: in vivo, Hordeum vulgare; conditions: applied alone at 140 g/ha, 20-22 d
# Procedure: as §1, with “stage. […]” for “stage.”
# The treated plants and control plants were placed in a greenhouse as described above and watered by sub-irrigation to prevent wash-off of the test compounds. After 20-22 d, the condition of the test plants as compared with that of the control plants was determined visually and scored on a scale of 0 to 100 percent where 0 corresponds to no injury and 100 corresponds to complete kill. […]
# [13] = tested on: TRZDU = Triticum durum (durum wheat); assay: as above; assay type: in vivo; conditions: applied alone at 140 g/ha; 20-22 d
# Procedure: as §1, §2, §3, §4, §5, §6, §7
# [14] = tested on: STEME = Stellaria media (common chickweed); assay: Postemergence herbicidal activity, greenhouse, visual injury; assay type: in vivo; conditions: applied alone at 140 g/ha; 20-22 d
# Procedure: as §1, §2, §3, §4, §5, §6, §7
# [15] = tested on: POLCO (wild buckwheat); assay: as above; assay type: in vivo, Polygonum convolvulus; conditions: applied alone at 140 g/ha; 20-22 d
# Procedure: as §1, §2, §3, §4, §5, §6, §7
# [16] = applied alone at 8.75 g/ha, listed as 1 Methyl Ester
# [17] = applied alone at 35 g/ha, listed as 1 Methyl Ester
# [18] = applied alone at 35 g/ha, listed as (I) Methyl ester
# [19] = applied alone at 140 g/ha, listed as 1 Methyl Ester
# [20] = applied alone at 8.75 g/ha, listed as (1) TEA salt
# [21] = applied alone at 35 g/ha, listed as (1) TEA salt
# [22] = applied alone at 140 g/ha, listed as (1) TEA salt
compound,measurement,setting,value
"COc1c(Cl)ccc(-c2cc(N)c(Cl)c(C(=O)O)n2)c1F [Compound 1 Methyl Ester, 4-amino-3-chloro-6-(4-chloro-2-fluoro-3-methoxyphenyl)pyridine-2-carboxylic acid]",HORVS Ob (observed injury),[1]; [16],22%
same,HORVS Ob (observed injury),[1]; [17],38%
same,HORVS Ob (observed injury),[1]; [18],43%
same,HORVS Ob (observed injury),[1]; [19],42%
same,TRZAS Ob (observed injury),[2]; [16],13%
same,TRZAS Ob (observed injury),[2]; [17],43%
same,TRZAS Ob (observed injury),[2]; [18],45%
same,TRZAS Ob (observed injury),"[2]; applied alone at 70 g/ha, listed as 1 Methyl Ester",25%
same,TRZAS Ob (observed injury),[2]; [19],37%
same,TRZAW Ob (observed injury),[3]; listed as 1 Methyl Ester,32%
same,VERPE Ob (observed injury),[4]; listed as 1 Methyl Ester,91%
same,GALAP Ob (observed injury),[5],100%
same,KCHSC Ob (observed injury),[6]; listed as 1 Methyl Ester,100%
same,SASKR Ob (observed injury),[7]; listed as 1 Methyl Ester,91%
same,VIOTR Ob (observed injury),[8]; listed as 1 Methyl Ester,67%
same,MATCH Ob (observed injury),[9]; listed as 1 Methyl Ester,82%
same,LAMPU Ob (observed injury),[10]; applied alone at 35 g/ha,100%
same,PAPRH Ob (observed injury),[11]; applied alone at 35 g/ha,97%
same,HORVW Ob (observed injury),[12]; listed as 1 Methyl Ester,42%
"COc1c(Cl)ccc(-c2cc(N)c(Cl)c(C(=O)O)n2)c1F [Compound (1) TEA salt, 4-amino-3-chloro-6-(4-chloro-2-fluoro-3-methoxyphenyl)pyridine-2-carboxylic acid]",HORVS Ob (observed injury),[1]; [20],25%
same,HORVS Ob (observed injury),[1]; [21],23%
same,HORVS Ob (observed injury),[1]; [22],23%
same,TRZAS Ob (observed injury),[2]; [20],5%
same,TRZAS Ob (observed injury),[2]; [21],15%
same,TRZAS Ob (observed injury),"[2]; applied alone at 70 g/ha, listed as (1) TEA salt",10%
same,TRZAS Ob (observed injury),[2]; [22],27%
same,TRZDU Ob (observed injury),[13],10%
same,TRZAW Ob (observed injury),[3]; listed as (1) TEA salt,24%
same,VERPE Ob (observed injury),[4]; listed as (1) TEA salt,89%
same,KCHSC Ob (observed injury),[6]; listed as (1) TEA salt,95%
same,SASKR Ob (observed injury),[7]; listed as (1) TEA salt,86%
same,VIOTR Ob (observed injury),[8]; listed as (1) TEA salt,66%
same,MATCH Ob (observed injury),[9]; listed as (1) TEA salt,84%
same,STEME Ob (observed injury),[14],88%
same,LAMPU Ob (observed injury),[10]; applied alone at 140 g/ha,98%
same,POLCO Ob (observed injury),[15],100%
same,PAPRH Ob (observed injury),[11]; applied alone at 140 g/ha,100%
same,HORVW Ob (observed injury),[12]; listed as (1) TEA salt,15%
